Assay results published in patent US4060682A, “Process for the synthetic production of 3-deoxy derivative of an aminoglycosidic antibiotic” (priority 1974, dated 1977).
In brackets after ≈: the same amount, converted by molar mass.

Tests used:
Assay in all cases: Minimum inhibitory concentration, standard serial dilution method, nutrient agar
Type in all cases: cell-based
[1] = system: Pseudomonas aeruginosa No.12; details: NO.12, 18 h, read-out: Minimum Inhibitory Concentration
From the text: (§1) 3'-Deoxyneamine, 3'-deoxy-6'-N-methylneamine, 3'-deoxyribostamycin, 3'-deoxy-6'-N-methylribostamycin, 3'-deoxykanamycin B, 3'-deoxy-6'-N-methylkanamycin B and 3'-deoxyparomamine which are produced by the process of this invention have been confirmed to be identical to their authentic samples, respectively, by making comparison between their n.m.r. spectra (in D2 O), mass spectra of their derivatives, thin layer chromatography on silica gel (developed with 4:5:2:5 n-butanolethanol-chloroform-17% aqueous ammonia) and antibacterial spectra. […] These 3'-deoxy derivatives are of low toxicity similarly to their parent substances and are useful for the therapeutic treatment of infections by gram-positive and gram-negative bacteria. 3'-Deoxyparomamine is useful as an intermediate for synthesis of any valuable derivative of aminoglycosidic antibiotics. The minimum inhibitory concentrations (mcg/ml) of these 3'-deoxy derivatives against various microorganisms were determined according to a standard serial dilution method using nutrient agar incubation medium at 37° C, the estimation being effected after 18 hours incubation.

[2] = system: Escherichia coli K12 JR66/W677; details: K12JR66/W677, 18 h, read-out: Minimum Inhibitory Concentration
From the text: as §1

[3] = system: Pseudomonas aeruginosa A3; details: A3, 18 h, read-out: Minimum Inhibitory Concentration
From the text: as §1

[4] = system: Pseudomonas aeruginosa GN315; details: GN315, 18 h, read-out: Minimum Inhibitory Concentration
From the text: as §1

[5] = system: Escherichia coli K12 LA290 R55; details: K12LA290R55, 18 h, read-out: Minimum Inhibitory Concentration
From the text: as §1

[6] = system: Escherichia coli K12 ML1629; details: K12ML1629, 18 h, read-out: Minimum Inhibitory Concentration
From the text: as §1

[7] = system: Escherichia coli K12 ML1410; details: K12ML1410, 18 h, read-out: Minimum Inhibitory Concentration
From the text: as §1

[8] = system: Staphylococcus aureus FDA 209P; details: FDA209P, 18 h, read-out: Minimum Inhibitory Concentration
From the text: as §1

[9] = system: Escherichia coli K12 W677; details: K12W677, 37° C, 18 hours
From the text: as §1

Escherichia coli K12 = details: K12, 18 h, read-out: Minimum Inhibitory Concentration
From the text: as §1

Question: CNC[C@H]1O[C@H](O[C@H]2[C@H](O)[C@@H](O[C@H]3O[C@H](CO)[C@@H](O)[C@H](N)[C@H]3O)[C@H](N)C[C@@H]2N)[C@H](N)C[C@@H]1O [3'-Deoxy-6'-N-methylkanamycin B, 3'-deoxy-6'-N-methylkanamycin B] was tested. Which MIC [1] did it give?
Answer: 0.78 µg/mL (≈ 1.62 µM)

Question: What about the MIC [2] of the same compound?
Answer: 50 µg/mL (≈ 104 µM)

Question: And the MIC [3]?
Answer: 0.78 µg/mL (≈ 1.62 µM)

Question: And the MIC [4]?
Answer: 6.25 µg/mL (≈ 13 µM)

Question: What about the MIC [5] of the same compound?
Answer: 50 µg/mL (≈ 104 µM)

Question: What about the MIC [6] of the same compound?
Answer: 1.56 µg/mL (≈ 3.24 µM)

Question: What about the MIC [7] of the same compound?
Answer: 1.56 µg/mL (≈ 3.24 µM)

Question: What about the MIC [8] of the same compound?
Answer: 1.56 µg/mL (≈ 3.24 µM)

Question: What about the MIC [9] of the same compound?
Answer: 1.56 µg/mL (≈ 3.24 µM)

Question: And the MIC (Escherichia coli K12)?
Answer: 0.78 µg/mL (≈ 1.62 µM)

Question: Which results are given for NC[C@H]1O[C@H](O[C@H]2[C@H](O)[C@@H](O[C@H]3O[C@H](CO)[C@@H](O)[C@H](N)[C@H]3O)[C@H](N)C[C@@H]2N)[C@H](N)C[C@@H]1O [3'-Deoxykanamycin B, 3'-deoxykanamycin B]?
Answer: MIC [1]: 0.78 µg/mL (≈ 1.67 µM); MIC [2]: 50 µg/mL (≈ 107 µM); MIC [3]: 0.78 µg/mL (≈ 1.67 µM); MIC [4]: 100 µg/mL (≈ 214 µM); MIC [5]: 50 µg/mL (≈ 107 µM); MIC [6]: 0.78 µg/mL (≈ 1.67 µM); MIC [7]: 0.78 µg/mL (≈ 1.67 µM); MIC [8]: 0.78 µg/mL (≈ 1.67 µM); MIC [9]: 1.56 µg/mL (≈ 3.34 µM); MIC (Escherichia coli K12): 0.78 µg/mL (≈ 1.67 µM)

Question: What does the source list for NC[C@H]1O[C@H](O[C@H]2[C@H](O)[C@@H](O)[C@H](N)C[C@@H]2N)[C@H](N)C[C@@H]1O [3'-Deoxyneamine, 3'-deoxyneamine]?
Answer: MIC [1]: 6.25 µg/mL (≈ 20.4 µM); MIC [2]: > 100 µg/mL; MIC [3]: 6.25 µg/mL (≈ 20.4 µM); MIC [4]: > 100 µg/mL; MIC [5]: 100 µg/mL (≈ 326 µM); MIC [6]: 6.25 µg/mL (≈ 20.4 µM); MIC [7]: 6.25 µg/mL (≈ 20.4 µM); MIC [8]: 3.12 µg/mL (≈ 10.2 µM); MIC [9]: 6.25 µg/mL (≈ 20.4 µM); MIC (Escherichia coli K12): 6.25 µg/mL (≈ 20.4 µM)

Question: N[C@@H]1C[C@H](O)[C@@H](CO)O[C@@H]1O[C@H]1[C@H](O)[C@@H](O)[C@H](N)C[C@@H]1N [3'-Deoxyparomamine, 3'-deoxyparomamine] was tested. Which MIC [1] did it give?
Answer: > 100 µg/mL

Question: What about the MIC [2] of the same compound?
Answer: > 100 µg/mL

Question: And the MIC [3]?
Answer: > 100 µg/mL

Question: And the MIC [4]?
Answer: > 100 µg/mL

Question: What about the MIC [5] of the same compound?
Answer: 50 µg/mL (≈ 163 µM)

Question: And the MIC [6]?
Answer: 100 µg/mL (≈ 325 µM)

Question: And the MIC [7]?
Answer: > 100 µg/mL

Question: And the MIC [8]?
Answer: 50 µg/mL (≈ 163 µM)

Question: What about the MIC [9] of the same compound?
Answer: > 100 µg/mL

Question: What about the MIC (Escherichia coli K12) of the same compound?
Answer: 100 µg/mL (≈ 325 µM)

Question: NC[C@H]1O[C@H](O[C@H]2[C@H](O[C@@H]3O[C@H](CO)[C@@H](O)[C@H]3O)[C@@H](O)[C@H](N)C[C@@H]2N)[C@H](N)C[C@@H]1O [3'-Deoxyribostamycin, 3'-deoxyribostamycin] was tested. Which MIC [1] did it give?
Answer: 3.12 µg/mL (≈ 7.12 µM)

Question: And the MIC [2]?
Answer: > 100 µg/mL

Question: What about the MIC [3] of the same compound?
Answer: 3.12 µg/mL (≈ 7.12 µM)

Question: What about the MIC [4] of the same compound?
Answer: > 100 µg/mL

Question: And the MIC [5]?
Answer: > 100 µg/mL

Question: And the MIC [6]?
Answer: > 100 µg/mL

Question: And the MIC [7]?
Answer: 6.25 µg/mL (≈ 14.3 µM)

Question: And the MIC [8]?
Answer: 6.25 µg/mL (≈ 14.3 µM)

Question: What about the MIC [9] of the same compound?
Answer: 3.12 µg/mL (≈ 7.12 µM)

Question: What about the MIC (Escherichia coli K12) of the same compound?
Answer: 6.25 µg/mL (≈ 14.3 µM)
